ChEMBL document CHEMBL1201862, “PubChem BioAssay data set” (2004)
Active and inactive are the calls of the source.

Assays:
[1] = target: RNA-editing ligase 1, mitochondrial (Trypanosoma brucei brucei, UniProt P86926); assay: TbREL1 ligase inhibitors, dose response, biochemical, fluorescence, Trypanosoma brucei (AID 1117295); format: functional
[2] = target: T1, Streptokinase A (Streptococcus pyogenes serotype M1, UniProt P10520); assay: S. pyogenes streptokinase expression inhibitors, potency, dose response, plasminogen activation absorbance, OD405 (AID 1914); format: functional, Streptococcus pyogenes M1 GAS;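 also: secreted streptokinase activity via plasminogen activation per viability signal from cell pellet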
T1 sequence (P10520 whole entry): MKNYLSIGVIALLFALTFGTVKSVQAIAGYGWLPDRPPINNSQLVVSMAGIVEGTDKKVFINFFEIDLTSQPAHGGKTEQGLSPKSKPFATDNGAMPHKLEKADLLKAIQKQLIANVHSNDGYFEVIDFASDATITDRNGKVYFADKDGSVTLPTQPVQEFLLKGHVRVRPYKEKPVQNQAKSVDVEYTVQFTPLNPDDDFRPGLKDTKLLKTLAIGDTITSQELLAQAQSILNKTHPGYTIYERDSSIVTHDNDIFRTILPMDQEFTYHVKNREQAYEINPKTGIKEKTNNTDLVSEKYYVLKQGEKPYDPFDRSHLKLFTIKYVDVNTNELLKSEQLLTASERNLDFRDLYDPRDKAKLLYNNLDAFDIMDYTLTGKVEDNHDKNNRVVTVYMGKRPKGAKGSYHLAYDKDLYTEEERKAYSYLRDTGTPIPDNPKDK

[3] = growth suppression of PTEN-null colon cells, dose response, cell-based, HCT116 PTEN knockout (AID 1047); format: functional;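 also: HCT116 colon tumor cells with PTEN knocked out; cells exposed to compound for 60 hours before readout; potency for loss of cell viability measured by luminescence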
[4] = target: T2, Sentrin-specific protease 6 (Homo sapiens, UniProt Q9GZR1); assay: SAR Analysis of small molecule inhibitors of Sentrin-specific protease 6 (SENP6) using a Luminescent assay. [Related pubchem assays (depositor defined):AID2582, AID2599]; format: functional
T2 sequence (Q9GZR1 whole entry): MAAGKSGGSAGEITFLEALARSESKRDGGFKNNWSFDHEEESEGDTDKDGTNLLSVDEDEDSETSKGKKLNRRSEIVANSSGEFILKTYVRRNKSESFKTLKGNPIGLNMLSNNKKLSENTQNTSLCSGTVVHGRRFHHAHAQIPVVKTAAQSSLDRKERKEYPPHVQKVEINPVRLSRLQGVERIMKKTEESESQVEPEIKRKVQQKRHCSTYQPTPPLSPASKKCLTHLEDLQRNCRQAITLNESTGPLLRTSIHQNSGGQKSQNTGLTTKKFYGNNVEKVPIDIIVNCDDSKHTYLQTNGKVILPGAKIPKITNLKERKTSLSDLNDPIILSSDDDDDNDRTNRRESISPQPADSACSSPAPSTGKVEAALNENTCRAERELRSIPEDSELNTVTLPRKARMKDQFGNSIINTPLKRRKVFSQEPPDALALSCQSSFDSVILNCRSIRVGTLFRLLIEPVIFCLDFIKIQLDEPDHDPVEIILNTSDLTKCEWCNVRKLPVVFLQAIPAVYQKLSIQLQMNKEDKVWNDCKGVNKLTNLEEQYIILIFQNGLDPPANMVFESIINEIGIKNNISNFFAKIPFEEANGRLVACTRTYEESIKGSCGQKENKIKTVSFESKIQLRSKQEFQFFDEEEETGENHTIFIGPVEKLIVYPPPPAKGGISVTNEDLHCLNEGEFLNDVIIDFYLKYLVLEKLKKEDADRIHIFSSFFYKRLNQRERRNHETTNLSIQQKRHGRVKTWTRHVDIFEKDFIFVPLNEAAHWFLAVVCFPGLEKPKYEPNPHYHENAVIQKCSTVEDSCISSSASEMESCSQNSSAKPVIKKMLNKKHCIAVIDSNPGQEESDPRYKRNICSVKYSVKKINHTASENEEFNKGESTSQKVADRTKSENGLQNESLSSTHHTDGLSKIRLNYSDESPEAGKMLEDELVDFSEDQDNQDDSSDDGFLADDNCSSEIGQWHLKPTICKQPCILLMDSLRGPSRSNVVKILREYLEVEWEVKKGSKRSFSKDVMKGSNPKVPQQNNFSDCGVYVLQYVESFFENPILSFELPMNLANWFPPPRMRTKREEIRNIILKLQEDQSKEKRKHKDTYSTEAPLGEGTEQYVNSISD

[5] = target: T3, Caspase-3 (Homo sapiens, UniProt P42574); assay: SAR Analysis of small molecule inhibitors of Sentrin-specific proteases (SENPs) using a Caspase-3 Selectivity assay. [Related pubchem assays (depositor defined):AID2540, AID2599, AID434973, AID489001]; format: functional
T3 sequence (P42574 whole entry): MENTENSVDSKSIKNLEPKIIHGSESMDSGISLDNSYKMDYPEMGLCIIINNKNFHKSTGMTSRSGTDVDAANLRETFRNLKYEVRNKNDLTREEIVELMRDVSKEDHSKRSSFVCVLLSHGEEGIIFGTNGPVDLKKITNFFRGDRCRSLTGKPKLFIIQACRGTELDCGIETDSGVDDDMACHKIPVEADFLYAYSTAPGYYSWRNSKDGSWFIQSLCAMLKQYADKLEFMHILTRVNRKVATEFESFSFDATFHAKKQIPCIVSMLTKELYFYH

[6] = HepG2 cell cytotoxicity, dose response, cytotoxicity control for Shn3 inhibitor project, CellTiter-Glo, cherry-picked (AID 624134); format: functional, cell-based
[7] = target: T4, Heat shock factor protein 1 (Mus musculus, UniProt P38532); assay: inhibition of MG132-induced HSE-luciferase signal, confirmation, cell-based, NIH3T3, luminescence, dose retest (AID 2382); format: functional;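 also: NIH3T3 fibroblasts with HSF1-driven luciferase reporter stressed by proteasome inhibitor MG132; luminescence from HSF1-driven luciferase expression after 8 hours of MG132 stress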
T4 sequence (P38532 whole entry): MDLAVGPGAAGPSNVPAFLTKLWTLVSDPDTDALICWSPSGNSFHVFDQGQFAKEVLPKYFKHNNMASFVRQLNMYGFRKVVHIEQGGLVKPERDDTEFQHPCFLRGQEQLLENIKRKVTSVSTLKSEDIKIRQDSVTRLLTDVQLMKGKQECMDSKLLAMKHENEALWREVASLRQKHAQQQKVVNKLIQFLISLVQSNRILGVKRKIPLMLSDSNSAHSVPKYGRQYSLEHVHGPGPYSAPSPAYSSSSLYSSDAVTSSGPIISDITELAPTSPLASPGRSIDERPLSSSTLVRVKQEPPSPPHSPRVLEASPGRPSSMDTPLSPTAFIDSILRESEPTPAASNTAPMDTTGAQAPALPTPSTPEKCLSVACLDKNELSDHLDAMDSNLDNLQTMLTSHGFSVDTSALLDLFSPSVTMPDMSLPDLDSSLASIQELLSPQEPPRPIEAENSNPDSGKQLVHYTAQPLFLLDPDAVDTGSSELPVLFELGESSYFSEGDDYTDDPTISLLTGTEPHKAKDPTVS

[8] = cytotoxicity toward DRD oncogenic fibroblasts, dose response, cell-based, non-viral oncogenic, luminescence (AID 1934); format: functional; conditions: Homo sapiens
[9] = cytotoxicity in HEK-293T cells, dose response, cytotoxicity control for TCR NF-kB inhibitor project, luminescence, T-cell screen hits (AID 489026); format: functional, cell-based;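 also: cells exposed to compound about 14 hours before the viability readout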

RNA-editing ligase 1, mitochondrial, sequence (P86926 whole entry): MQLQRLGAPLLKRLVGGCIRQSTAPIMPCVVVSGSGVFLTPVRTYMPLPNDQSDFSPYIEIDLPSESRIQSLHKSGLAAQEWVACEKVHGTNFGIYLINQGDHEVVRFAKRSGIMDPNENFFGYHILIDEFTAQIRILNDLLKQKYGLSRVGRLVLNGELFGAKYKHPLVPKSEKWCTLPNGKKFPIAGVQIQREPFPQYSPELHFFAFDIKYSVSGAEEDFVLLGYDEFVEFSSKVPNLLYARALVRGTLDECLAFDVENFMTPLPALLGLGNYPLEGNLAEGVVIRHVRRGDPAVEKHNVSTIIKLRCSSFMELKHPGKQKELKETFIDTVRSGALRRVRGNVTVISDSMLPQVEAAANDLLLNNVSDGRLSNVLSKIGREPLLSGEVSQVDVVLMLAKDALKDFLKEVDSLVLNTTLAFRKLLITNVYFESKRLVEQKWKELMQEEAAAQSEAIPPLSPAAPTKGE

For `CCCCn1c(NC(=O)c2ccco2)c(C(=O)OCC)c2nc3ccccc3nc21`, the IC50 [1] was 21.8 µM (inactive).

With `COc1ccc(-c2cc(-c3ccc(C)cc3)[nH]n2)c(O)c1` the EC50 [2] was > 150 µM (not active).

With `Cc1ccc(NC2=C/C(=N/S(=O)(=O)c3cccs3)c3ccccc3C2=O)cc1` the EC50 [3] was 3.56 µM (active).

With `O=C(Nc1ccc(C#Cc2ccccc2)cc1)C1CC1` the IC50 [4] was > 99 µM (inactive) and the IC50 [5] was 19.7 µM (active).

For `COC(=O)C[C@]1(C(=O)OC)CN(C#N)N(c2ccc(Cl)cc2)C12c1ccccc1-c1ccccc12`, the AC50 [6] was 4.76 µM (active), the EC50 [7] was 2.74 µM (active) and the EC50 [8] was 3.62 µM (active). The IC50 [9] was > 80 µM (inactive).
